Measurements reported in patent US9365576B2, “Pyrrolopyrrolidinone compounds” (Novartis AG, priority 2012, dated 2016).

target: human MDM2 protein (amino acids 2-188) (Homo sapiens (Human), UniProt Q00987); assay: TR-FRET assay, p53-MDM2 Assay 2 (modified); type: binding; conditions: TR-FRET; 0.1 nM MDM2, 0.1 nM Europium labeled streptavidin, Tecan genios Pro reader; read-out: IC50 p53-MDM2 Assay 2
Outline: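 IC50 values were curve-fitted from the time-resolved 665/620 nm emission ratio after 340 nm excitation. The assay combined 0.625 nM europium-streptavidin donor with 1.25 nM C-terminally biotinylated MDM2 2–188 (15 min, RT), followed by 15 min with 10 nM Cy5-labeled p53 18–26 acceptor peptide.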

human MDM2 protein (amino acids 2-188), sequence (Q00987 2-188): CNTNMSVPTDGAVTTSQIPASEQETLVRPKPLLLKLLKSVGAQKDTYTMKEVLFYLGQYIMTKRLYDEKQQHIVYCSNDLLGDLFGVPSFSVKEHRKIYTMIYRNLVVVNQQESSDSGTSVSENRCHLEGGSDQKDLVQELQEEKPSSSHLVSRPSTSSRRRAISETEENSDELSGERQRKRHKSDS

Q: Which IC50 does the source give for `COc1nc(N(C)C)ncc1-c1cc2c(n1C(C)C)C(c1ccc(C#N)cc1)N(c1cccc(Cl)c1F)C2=O` (stereo not shown) [Example 94, 4-[5-(3-Chloro-2-fluoro-phenyl)-2-(2-dimethylamino-4-methoxy-pyrimidin-5-yl)-1-isopropyl-4-oxo-1,4,5,6-tetrahydro-pyrrolo[3,4-b]pyrrol-6-yl]-benzonitrile] here?
A: Its IC50 is 0.188 nM.

Q: `COc1nc(N)ncc1-c1cc2c(n1C(C)C)C(c1ccc(C#N)cc1)N(c1c[nH]c(=O)c(Cl)c1)C2=O` (stereo not shown) [Example 134, 4-[2-(2-Amino-4-methoxy-pyrimidin-5-yl)-5-(5-chloro-6-oxo-1,6-dihydro-pyridin-3-yl)-1-isopropyl-4-oxo-1,4,5,6-tetrahydro-pyrrolo[3,4-b]pyrrol-6-yl]-benzonitrile] was tested. Which IC50 did it give?
A: Its IC50 is 1.25 nM.

Q: Which IC50 does the source give for `COc1nc(N(C)C)ncc1-c1cc2c(n1C(C)C)C(c1ccc(Cl)cc1)N(C1CCOCC1)C2=O` (stereo not shown) [Example 79, 6-(4-Chloro-phenyl)-2-(2-dimethylamino-4-methoxy-pyrimidin-5-yl)-1-isopropyl-5-(tetrahydro-pyran-4-yl)-5,6-dihydro-1H-pyrrolo[3,4-b]pyrrol-4-one] here?
A: The IC50 was 0.423 nM.

Q: For `CNc1ncc(-c2cc3c(n2C(C)C)[C@H](c2ccc(C#N)cc2)N(c2cc(Cl)cn(C)c2=O)C3=O)c(OC)n1` [Example 165, 4-[(S)-5-(5-Chloro-1-methyl-2-oxo-1,2-dihydro-pyridin-3-yl)-1-isopropyl-2-(4-methoxy-2-methylamino-pyrimidin-5-yl)-4-oxo-1,4,5,6-tetrahydro-pyrrolo[3,4-b]pyrrol-6-yl]-benzonitrile], which IC50 is on record?
A: The IC50 was 0.578 nM.

Q: `COc1nc(N)ncc1-c1cc2c(n1C(C)C)C(c1ccc(C#N)cc1)N(c1ccc(F)c(Cl)c1)C2=O` (stereo not shown) [Example 39, 4-[2-(2-Amino-4-methoxy-pyrimidin-5-yl)-5-(3-chloro-4-fluoro-phenyl)-1-isopropyl-4-oxo-1,4,5,6-tetrahydro-pyrrolo[3,4-b]pyrrol-6-yl]-benzonitrile] was tested. Which IC50 did it give?
A: Its IC50 is 0.556 nM.

Q: For `COc1nc(N(C)C)ncc1-c1cc2c(n1C(C)C)C(c1ccc(Cl)cc1)N([C@H]1CC[C@H](OC)CC1)C2=O` (stereo partly drawn) [Example 142, 6-(4-Chloro-phenyl)-2-(2-dimethylamino-4-methoxy-pyrimidin-5-yl)-1-isopropyl-5-(trans-4-methoxy-cyclohexyl)-5,6-dihydro-1H-pyrrolo[3,4-b]pyrrol-4-one], which IC50 is on record?
A: Its IC50 is 0.74 nM.

Q: For `COc1nc(N(C)C)ncc1-c1c(C#N)c2c(n1C(C)C)C(c1ccc(Cl)cc1)N(c1cc(Cl)c(=O)n(C)c1)C2=O` (stereo not shown) [Example 164, 5-(5-Chloro-1-methyl-6-oxo-1,6-dihydro-pyridin-3-yl)-6-(4-chloro-phenyl)-2-(2-dimethylamino-4-methoxy-pyrimidin-5-yl)-1-isopropyl-4-oxo-1,4,5,6-tetrahydro-pyrrolo[3,4-b]pyrrole-3-carbonitrile], which IC50 is on record?
A: Its IC50 is 0.121 nM.

Q: How did the IC50 turn out when `CNc1ncc(-c2cc3c(n2C(C)C)C(c2ccc(C#N)cc2)N(c2cc(Cl)cn(C)c2=O)C3=O)c(OC)n1` (stereo not shown) [Example 130, 4-[5-(5-Chloro-1-methyl-2-oxo-1,2-dihydro-pyridin-3-yl)-1-isopropyl-2-(4-methoxy-2-methylamino-pyrimidin-5-yl)-4-oxo-1,4,5,6-tetrahydro-pyrrolo[3,4-b]pyrrol-6-yl]-benzonitrile] was run?
A: The IC50 was 1.08 nM.

Q: `COc1nc(N(C)C)ncc1-c1cc2c(n1C(C)C)C(c1ccc(Cl)cc1)N(c1c(F)c(C)nn1C)C2=O` (stereo not shown) [Example 209, 6-(4-Chloro-phenyl)-2-(2-dimethylamino-4-methoxy-pyrimidin-5-yl)-5-(4-fluoro-2,5-dimethyl-2H-pyrazol-3-yl)-1-isopropyl-5,6-dihydro-1H-pyrrolo[3,4-b]pyrrol-4-one] was tested. Which IC50 did it give?
A: The IC50 was 0.158 nM.

Q: `COc1ccc(-c2cc3c(n2C(C)C)C(c2ccc(Cl)cc2)N(c2cc(Cl)ccc2C)C3=O)c(OC)c1` (stereo not shown) [Example 38, 5-(5-Chloro-2-methyl-phenyl)-6-(4-chloro-phenyl)-2-(2,4-dimethoxy-phenyl)-1-isopropyl-5,6-dihydro-1H-pyrrolo[3,4-b]pyrrol-4-one] was tested. Which IC50 did it give?
A: Its IC50 is 0.444 nM.

Q: With `COc1ncc(-c2cc3c(n2C(C)C)C(c2ccc(Cl)cc2)N(c2ccc(F)c(Cl)c2)C3=O)c(OC)n1` (stereo not shown) [Example 54, 5-(3-Chloro-4-fluoro-phenyl)-6-(4-chloro-phenyl)-2-(2,4-dimethoxy-pyrimidin-5-yl)-1-isopropyl-5,6-dihydro-1H-pyrrolo[3,4-b]pyrrol-4-one] as the compound, how does the IC50 read?
A: The IC50 was 0.267 nM.

Q: `COc1ccc(-c2nnn[nH]2)cc1-c1cc2c(n1C(C)C)C(c1ccc(Cl)cc1)N(c1cc(Cl)ccc1C)C2=O` (stereo not shown) [Example 34, 5-(5-Chloro-2-methyl-phenyl)-6-(4-chloro-phenyl)-1-isopropyl-2-[2-methoxy-5-(1H-tetrazol-5-yl)-phenyl]-5,6-dihydro-1H-pyrrolo[3,4-b]pyrrol-4-one] was tested. Which IC50 did it give?
A: The IC50 was 0.188 nM.

Q: How did the IC50 turn out when `COc1nc(N(C)C)ncc1-c1cc2c(n1C(C)C)C(c1ccc(C#N)cc1)N(c1cc(Cl)c(=O)n(C)c1)C2=O` (stereo not shown) [Example 185, 4-[5-(5-Chloro-1-methyl-6-oxo-1,6-dihydro-pyridin-3-yl)-2-(2-dimethylamino-4-methoxy-pyrimidin-5-yl)-1-isopropyl-4-oxo-1,4,5,6-tetrahydro-pyrrolo[3,4-b]pyrrol-6-yl]-benzonitrile] was run?
A: Its IC50 is 0.225 nM.

Q: For `COc1ccc(C(=O)O)cc1-c1cc2c(n1C(C)C)[C@@H](c1ccc(Cl)cc1)N(c1cc(Cl)ccc1C)C2=O` [Example 90, 3-[(R)-5-(5-Chloro-2-methyl-phenyl)-6-(4-chloro-phenyl)-1-isopropyl-4-oxo-1,4,5,6-tetrahydro-pyrrolo[3,4-b]pyrrol-2-yl]-4-methoxy-benzoic acid], which IC50 is on record?
A: Its IC50 is 6.21 nM.

Q: With `COc1ncc(-c2cc3c(n2C(C)C)[C@H](c2ccc(C#N)c(F)c2)N(c2cc(Cl)c(=O)n(C)c2)C3=O)c(OC)n1` [Example 237, (S)-4-(5-(5-Chloro-1-methyl-6-oxo-1,6-dihydropyridin-3-yl)-2-(2,4-dimethoxypyrimidin-5-yl)-1-isopropyl-4-oxo-1,4,5,6-tetrahydropyrrolo[3,4-b]pyrrol-6-yl)-2-fluorobenzonitrile] as the compound, how does the IC50 read?
A: The IC50 was 0.107 nM.

Q: For `COC[C@@H](C)n1c(-c2cnc(N)nc2OC)cc2c1[C@@H](c1ccc(Cl)cc1)N(c1ccc(F)c(Cl)c1)C2=O` [Example 230, (R)-2-(2-Amino-4-methoxy-pyrimidin-5-yl)-5-(3-chloro-4-fluoro-phenyl)-6-(4-chloro-phenyl)-1-((R)-2-methoxy-1-methyl-ethyl)-5,6-dihydro-1H-pyrrolo[3,4-b]pyrrol-4-one], which IC50 is on record?
A: The IC50 was 281 nM.

Q: How did the IC50 turn out when `COc1ncc(-c2cc3c(n2C(C)C)C(c2ccc(Cl)c(F)c2)N(c2cc(Cl)c(=O)n(C)c2)C3=O)c(OC)n1` (stereo not shown) [Example 192, 6-(4-Chloro-3-fluoro-phenyl)-5-(5-chloro-1-methyl-6-oxo-1,6-dihydro-pyridin-3-yl)-2-(2,4-dimethoxy-pyrimidin-5-yl)-1-isopropyl-5,6-dihydro-1H-pyrrolo[3,4-b]pyrrol-4-one] was run?
A: Its IC50 is 0.128 nM.

Q: Which IC50 does the source give for `COc1ccc(CO)cc1-c1cc2c(n1C(C)C)C(c1ccc(Cl)cc1C)N(c1cccc(Cl)c1F)C2=O` (stereo not shown) [Example 4, 5-(3-Chloro-2-fluoro-phenyl)-6-(4-chloro-2-methyl-phenyl)-2-(5-hydroxymethyl-2-methoxy-phenyl)-1-isopropyl-5,6-dihydro-1H-pyrrolo[3,4-b]pyrrol-4-one] here?
A: The IC50 was 0.286 nM.

Q: Which IC50 does the source give for `COc1nc(N)ncc1-c1cc2c(n1C(C)C)[C@@H](c1ccc(C#N)cc1)N(c1cccc(Cl)c1F)C2=O` [Example 155, 4-[(R)-2-(2-Amino-4-methoxy-pyrimidin-5-yl)-5-(3-chloro-2-fluoro-phenyl)-1-isopropyl-4-oxo-1,4,5,6-tetrahydro-pyrrolo[3,4-b]pyrrol-6-yl]-benzonitrile] here?
A: The IC50 was 43 nM.

Q: How did the IC50 turn out when `COc1ncc(-c2cc3c(n2C(C)C)C(c2ccc(C#N)cc2)N(c2cc(C)nn2C)C3=O)c(OC)n1` (stereo not shown) [Example 179, 4-[2-(2,4-Dimethoxy-pyrimidin-5-yl)-5-(2,5-dimethyl-2H-pyrazol-3-yl)-1-isopropyl-4-oxo-1,4,5,6-tetrahydro-pyrrolo[3,4-b]pyrrol-6-yl]-benzonitrile] was run?
A: Its IC50 is 3.46 nM.

Q: How did the IC50 turn out when `COc1ncc(-c2cc3c(n2C(C)C)C(c2ccc(Cl)cc2)N([C@H]2CC[C@H](OC)CC2)C3=O)c(OC)n1` (stereo partly drawn) [Example 143, 6-(4-Chloro-phenyl)-2-(2,4-dimethoxy-pyrimidin-5-yl)-1-isopropyl-5-(trans-4-methoxy-cyclohexyl)-5,6-dihydro-1H-pyrrolo[3,4-b]pyrrol-4-one] was run?
A: Its IC50 is 1.69 nM.

Q: For `COc1ncc(-c2cc3c(n2C(C)C)C(c2ccc(Cl)cc2)N(c2cc(Cl)c[nH]c2=O)C3=O)c(OC)n1` (stereo not shown) [Example 204, 5-(5-Chloro-2-oxo-1,2-dihydro-pyridin-3-yl)-6-(4-chloro-phenyl)-2-(2,4-dimethoxy-pyrimidin-5-yl)-1-isopropyl-5,6-dihydro-1H-pyrrolo[3,4-b]pyrrol-4-one], which IC50 is on record?
A: Its IC50 is 0.195 nM.

Q: How did the IC50 turn out when `COc1nc(N)ncc1-c1cc2c(n1C(C)C)C(c1ccc(C#N)cc1)N(c1cc(Cl)ccc1C)C2=O` (stereo not shown) [Example 43] was run?
A: The IC50 was 0.401 nM.

Q: With `COc1ncc(-c2cc3c(n2C(C)C)[C@H](c2ccc(C#N)cc2)N(c2cc(Cl)c(=O)n(C)c2)C3=O)c(OC)n1` [Example 186, 4-[(S)-5-(5-Chloro-1-methyl-6-oxo-1,6-dihydro-pyridin-3-yl)-2-(2,4-dimethoxy-pyrimidin-5-yl)-1-isopropyl-4-oxo-1,4,5,6-tetrahydro-pyrrolo[3,4-b]pyrrol-6-yl]-benzonitrile] as the compound, how does the IC50 read?
A: The IC50 was 0.108 nM.

Q: With `CCn1c(-c2cnc(OC)nc2OC)cc2c1C(c1ccc(Cl)cc1)N(c1cc(Cl)ccc1C)C2=O` (stereo not shown) [Example 45, 5-(5-Chloro-2-methyl-phenyl)-6-(4-chloro-phenyl)-2-(2,4-dimethoxy-pyrimidin-5-yl)-1-ethyl-5,6-dihydro-1H-pyrrolo[3,4-b]pyrrol-4-one] as the compound, how does the IC50 read?
A: Its IC50 is 87.6 nM.
